Measured values as given in the supplement of paper PMC10307832.

What was measured:
Experiment in all cases: relative viability (nuclei count vs DMSO), 5 days (fraction); higher = more cells survive
Crizotinib + Navitoclax = compound: C[C@@H](Oc1cc(-c2cnn(C3CCNCC3)c2)cnc1N)c1c(Cl)ccc(F)c1Cl [Crizotinib] + CC1(C)CCC(c2ccc(Cl)cc2)=C(CN2CCN(c3ccc(C(=O)NS(=O)(=O)c4ccc(N[C@H](CCN5CCOCC5)CSc5ccccc5)c(S(=O)(=O)C(F)(F)F)c4)cc3)CC2)C1 [Navitoclax] (partner 0.5 µM)
Summary of the method: (§1)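 Nuclei were stained with Hoechst during a one-step fixation (final 0.05% Triton X-100, 1% formaldehyde, 1 ug/ml Hoechst) carried out 5 days after dosing, then counted on 4× images. The cells, lung cancer lines in 1536-well plates, had been dosed by pin tool the day after seeding with one drug alone or a fixed anchor-drug dose plus five library-drug doses (not always all listed) in √10 steps. Relative viability is the nuclei count in treated wells divided by that in vehicle wells, and each value is the median of duplicate plates.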

Carfilzomib + Decitabine = compound: CC(C)C[C@H](NC(=O)[C@H](CCc1ccccc1)NC(=O)CN1CCOCC1)C(=O)N[C@@H](Cc1ccccc1)C(=O)N[C@@H](CC(C)C)C(=O)[C@@]1(C)CO1 [Carfilzomib] + Nc1ncn([C@H]2C[C@H](O)[C@@H](CO)O2)c(=O)n1 [Decitabine] (partner 2 µM)
Summary of the method: as §1

Carfilzomib + Pictilisib = compound: CC(C)C[C@H](NC(=O)[C@H](CCc1ccccc1)NC(=O)CN1CCOCC1)C(=O)N[C@@H](Cc1ccccc1)C(=O)N[C@@H](CC(C)C)C(=O)[C@@]1(C)CO1 [Carfilzomib] + CS(=O)(=O)N1CCN(Cc2cc3nc(-c4cccc5[nH]ncc45)nc(N4CCOCC4)c3s2)CC1 [Pictilisib] (partner 1 µM)
Summary of the method: as §1

Olaparib + Luminespib = compound: O=C(c1cc(Cc2n[nH]c(=O)c3ccccc23)ccc1F)N1CCN(C(=O)C2CC2)CC1 [Olaparib] + CCNC(=O)c1noc(-c2cc(C(C)C)c(O)cc2O)c1-c1ccc(CN2CCOCC2)cc1 [Luminespib] (partner 0.01 µM)
Summary of the method: as §1

Cell Line | relative viability (Crizotinib + Navitoclax; first compound 0.01 µM) | relative viability (Crizotinib + Navitoclax; first compound 0.03162 µM) | relative viability (Crizotinib + Navitoclax; first compound 0.1 µM) | relative viability (Crizotinib + Navitoclax; first compound 0.3162 µM) | relative viability (Crizotinib + Navitoclax; first compound 1 µM) | relative viability (Carfilzomib + Decitabine; first compound 0.001 µM) | relative viability (Carfilzomib + Decitabine; first compound 0.003162 µM) | relative viability (Carfilzomib + Decitabine; first compound 0.01 µM) | relative viability (Carfilzomib + Decitabine; first compound 0.03162 µM) | relative viability (Carfilzomib + Decitabine; first compound 0.1 µM) | relative viability (Carfilzomib + Pictilisib; first compound 0.001 µM) | relative viability (Carfilzomib + Pictilisib; first compound 0.003162 µM) | relative viability (Carfilzomib + Pictilisib; first compound 0.01 µM) | relative viability (Carfilzomib + Pictilisib; first compound 0.03162 µM) | relative viability (Carfilzomib + Pictilisib; first compound 0.1 µM) | relative viability (Olaparib + Luminespib; first compound 0.08 µM) | relative viability (Olaparib + Luminespib; first compound 0.253 µM) | relative viability (Olaparib + Luminespib; first compound 2.53 µM) | relative viability (Olaparib + Luminespib; first compound 8 µM)
NCI-H1355 | 0.901 | 1.02 | 0.929 | 0.923 | 0.931 | 0.379 | 0.402 | 0.353 | 0.377 | 0.157 | 0.404 | 0.6 | 0.396 | 0.219 | 0.145 | 0.648 | 0.694 | 0.52 | 0.572
NCI-H1395 | 1.12 | 0.956 | 1.09 | 1.21 |  |  | 0.756 | 0.602 | 0.441 | 0.319 | 0.564 | 0.644 | 0.593 | 0.479 | 0.525 | 0.633 | 0.533 | 0.62 | 0.447
NCI-H1437 | 1.05 | 1.07 | 1.14 | 1.02 | 1.13 | 0.58 | 0.599 | 0.567 | 0.413 | 0.316 | 0.313 | 0.463 | 0.41 | 0.322 | 0.0975 | 1.26 | 1.08 | 1.06 | 0.809
NCI-H1650 | 1.1 | 1.15 | 1.08 | 1.2 | 1.13 | 0.42 | 0.522 | 0.359 | 0.148 | 0.177 |  | 0.685 | 0.284 | 0.127 | 0.151 | 0.245 | 0.188 | 0.2 | 0.195
NCI-H1651 | 0.98 | 1.12 | 0.997 | 1.15 | 1.28 | 0.467 | 0.677 | 0.32 | 0.163 | 0.0885 | 0.551 | 0.601 | 0.231 | 0.0999 | 0.0685 | 0.798 | 0.605 | 0.431 | 0.216
NCI-H1666 | 0.93 | 0.81 | 0.857 | 0.876 | 1.06 | 0.707 | 0.782 | 0.751 | 0.704 | 0.403 | 0.536 | 0.676 | 0.586 | 0.422 | 0.228 | 1.1 | 0.879 | 0.889 | 0.697
NCI-H1734 | 0.888 | 0.81 | 0.844 |  |  | 0.482 | 0.517 | 0.48 | 0.474 | 0.136 | 0.476 | 0.501 | 0.389 | 0.234 | 0.127 | 0.212 | 0.205 | 0.185 | 0.183
NCI-H1755 | 0.937 | 1.02 | 0.999 | 0.961 | 0.983 | 0.732 | 0.729 | 0.669 | 0.755 | 0.446 | 0.412 | 0.479 | 0.413 | 0.239 | 0.16 | 0.743 | 0.411 | 0.41 | 0.418
